Reference: patent US9597407B2, “Targeted antimicrobial moieties” (C3 Jian, Inc., priority 2009, dated 2017)
“Also recorded” adds a separate entry of the source.

Legend:
microorganisms = assay: Morphology, biofilm and growth disruption by peptides (Table 5); assay type: cell-based; set-up: key: A: Peptide aggregates; B: Less hyphal formation; Clumps; Diffuse clumps and small polyps; F: Diffuse growth; H: Thin; I: Growth inhibition; Microcolony formation; Rippled; Small polyps; Thick; W: Halo formation on top, microlonies on bottom
Text: In certain embodiments peptides that induce alterations in phenotype or other biological activities can also be used as antimicrobial effector moieties.

bacteria = assay: Binding of targeting peptides to microorganisms (Table 3); settings: preferably 1x PBS; for Target(s) (microorganisms bound by the targeting peptide) / Target(s) (microorganism bound by the targeting peptide): peptide binding in aqueous buffers that varied depending on peptide solubility
[1] = microorganism bound by the targeting peptide, binding in aqueous buffers chosen by peptide solubility
[2] = microorganism the targeting peptide binds, binding in aqueous buffers that varied with peptide solubility

PF-421 (KHCFEITDKTDVV; Peptide with targeting and/or antimicrobial activity)
Organism, effect (microorganisms; S. pneumoniae): S. pneumoniae (H)
Target(s) (microorganisms bound by the targeting peptide) (bacteria): C. jeikeium

PF-144 (RSGQPVGRPSRRAWLR; Peptide with targeting and/or antimicrobial activity)
Organism, effect (microorganisms; S. pneumoniae): S. pneumoniae (H)
Target(s) (bacteria; [1]): S. epidermidis and M. luteus and E. coli and C. albicans and MRSA and S. pneumoniae and E. faecalis and C. jeikeium

PF-003 (chain 1 MNNWIKVAQISVTVINEVIDIMKEKQNGGK; chain 2 MNNWIKVAQISVTVINEVIDIMKEKQNGGK; Peptide with targeting and/or antimicrobial activity)
Organism, effect (microorganisms; C. jeikeium): C. jeikeium (A)
Organism, effect (microorganisms; M. luteus): M. luteus (A)
Organism, effect (microorganisms; MRSA): MRSA (R)
Organism, effect (microorganisms; S. epidermidis): S. epidermidis (D)
Target(s) (bacteria; [2]): S. epidermidis and M. luteus and P. mirabilis and C. albicans and MRSA and C. jeikeium

PF-696 (chain 1 IRSGISAAYARPLR; chain 2 IRSGISAAYARPLR; Peptide with targeting and/or antimicrobial activity)
Organism, effect (morphology, biofilm and growth disruption) (microorganisms; S. pneumoniae): S. pneumoniae (H)
Target(s) (microorganism bound by the targeting peptide) (bacteria): Mycobacteria spp

PF-276 (LDLALSTNSLNLEGFSF; Peptide with targeting and/or antimicrobial activity)
Organism, effect (microorganisms; M. luteus): M. luteus (M)
Target(s) (bacteria; [1]): S. epidermidis

PF-070 (SMVKSEIVDLLNGEDNDD; Peptide with targeting and/or antimicrobial activity)
Organism, effect (microorganisms; B. subtilis): B. subtilis (D)
Target(s) (bacteria; [2]): S. epidermidis; also recorded: C. jejuni

SIGSMIGMYSFRHKTKHIKFTFGIPFILFLQFLLVYFYILK [PF-319]
Organism, effect (microorganisms; B. subtilis): B. subtilis (C)
Organism, effect (microorganisms; S. epidermidis): S. epidermidis (C)
Target(s) (bacteria; [1]): S. epidermidis; also recorded: B. subtilis; also recorded: C. difficile

PF-074 (RDIHPIYFMTKD; Peptide with targeting and/or antimicrobial activity)
Organism, effect (microorganisms; MRSA): MRSA (M)
Organism, effect (microorganisms; S. epidermidis): S. epidermidis (D)
Target(s) (bacteria; [1]): S. epidermidis and M. luteus and MRSA

PF-128 (GIKVVAARFEEIQFSENFDSIILA; Peptide with targeting and/or antimicrobial activity)
Organism, effect (microorganisms; P. aeruginosa): P. aeruginosa (C)
Organism, effect (microorganisms; S. epidermidis): S. epidermidis (D)
Target(s) (bacteria; [1]): M. luteus; also recorded: P. aeruginosa; also recorded: E. faecalis

PF-601 (YRVTVKALE; Peptide with targeting and/or antimicrobial activity)
Organism, effect (morphology, biofilm and growth disruption) (microorganisms; C. jejuni): C. jejuni (A)
Organism, effect (morphology, biofilm and growth disruption) (microorganisms; E. faecalis): E. faecalis (A)
Target(s) (microorganism bound by the targeting peptide) (bacteria): C. jeikeium

PF-691 (chain 1 HRTVEFGVLGTYLVSGGSL; chain 2 HRTVEFGVLGTYLVSGGSL; Peptide with targeting and/or antimicrobial activity)
Organism, effect (morphology, biofilm and growth disruption) (microorganisms; S. pneumoniae): S. pneumoniae (R)
Target(s) (microorganism bound by the targeting peptide) (bacteria): Mycobacteria spp

PF-690 (chain 1 MIPLAGDPVSSHRTVEFGVLGTYLVSGGSL; chain 2 MIPLAGDPVSSHRTVEFGVLGTYLVSGGSL; Peptide with targeting and/or antimicrobial activity)
Organism, effect (morphology, biofilm and growth disruption) (microorganisms; E. faecalis): E. faecalis (R)
Organism, effect (morphology, biofilm and growth disruption) (microorganisms; MRSA): MRSA (R)
Organism, effect (morphology, biofilm and growth disruption) (microorganisms; S. epidermidis): S. epidermidis (R)
Organism, effect (morphology, biofilm and growth disruption) (microorganisms; S. pneumoniae): S. pneumoniae (M)
Target(s) (microorganism bound by the targeting peptide) (bacteria): Mycobacteria spp

PF-099 (EIIAYLEGRFANA; Peptide with targeting and/or antimicrobial activity)
Organism, effect (microorganisms; C. jeikeium): C. jeikeium (C)
Organism, effect (microorganisms; S. epidermidis): S. epidermidis (D)
Target(s) (bacteria; [1]): S. epidermidis; also recorded: M. luteus; also recorded: E. coli; also recorded: C. jeikeium

PF-C131 (QWIVAKREIRMHIYCHISVIHVIIFFG; Peptide with targeting and/or antimicrobial activity)
Organism, effect (morphology, biofilm and growth disruption) (microorganisms; F. nucleatum): F. nucleatum (T)
Organism, effect (morphology, biofilm and growth disruption) (microorganisms; S. mutans): S. mutans (F)
Target(s) (microorganism bound by the targeting peptide) (bacteria): A. naeslundii; also recorded: F. nucleatum; also recorded: P. gingivalis; also recorded: S. mutans

PF-176 (RLTSNQFLTRITPFVFAQH; Peptide with targeting and/or antimicrobial activity)
Organism, effect (microorganisms; C. jeikeium): C. jeikeium (D)
Organism, effect (microorganisms; M. luteus): M. luteus (C)
Organism, effect (microorganisms; S. epidermidis): S. epidermidis (C)
Target(s) (bacteria; [1]): S. epidermidis and M. luteus and P. mirabilis and E. coli and C. albicans and MRSA and E. faecalis and C. jeikeium

LHVIRPRPELSELKFPITKILKVNKQGLKK [PF-752]
Organism, effect (morphology, biofilm and growth disruption) (microorganisms; S. pneumoniae): S. pneumoniae (C)
Target(s) (microorganism bound by the targeting peptide) (bacteria): S. epidermidis and E. coli and MRSA and S. pneumoniae and E. faecalis

PF-C088 (DIANNILNSVSERLIIA; Peptide with targeting and/or antimicrobial activity)
Organism, effect (morphology, biofilm and growth disruption) (microorganisms; F. nucleatum): F. nucleatum (H)
Organism, effect (morphology, biofilm and growth disruption) (microorganisms; P. gingivalis): P. gingivalis (R)
Organism, effect (morphology, biofilm and growth disruption) (microorganisms; S. mutans): S. mutans (I)
Target(s) (microorganism bound by the targeting peptide) (bacteria): A. naeslundii; also recorded: F. nucleatum; also recorded: P. gingivalis; also recorded: S. mutans; also recorded: T. denticola

PF-429 (AATLICVGSGIMSSL; Peptide with targeting and/or antimicrobial activity)
Organism, effect (morphology, biofilm and growth disruption) (microorganisms; E. faecalis): E. faecalis (C)
Organism, effect (morphology, biofilm and growth disruption) (microorganisms; MRSA): MRSA (C)
Organism, effect (morphology, biofilm and growth disruption) (microorganisms; S. epidermidis): S. epidermidis (C)
Organism, effect (morphology, biofilm and growth disruption) (microorganisms; S. pneumoniae): S. pneumoniae (M)
Target(s) (microorganisms bound by the targeting peptide) (bacteria): S. epidermidis; also recorded: S. pneumoniae; also recorded: C. jeikeium

MIRIRSPTKKKLNRNSISDWKSNTSGRFFY [PF-283]
Organism, effect (microorganisms; B. subtilis): B. subtilis (H)
Organism, effect (microorganisms; S. epidermidis): S. epidermidis (H)
Target(s) (bacteria; [1]): B. subtilis; also recorded: B. fragilis; also recorded: C. difficile

PF-682 (chain 1 RRGKSEQGLSRR; chain 2 RRGKSEQGLSRR; Peptide with targeting and/or antimicrobial activity)
Organism, effect (morphology, biofilm and growth disruption) (microorganisms; S. pneumoniae): S. pneumoniae (A)
Target(s) (microorganism bound by the targeting peptide) (bacteria): Mycobacteria spp

PF-693 (chain 1 PDPAR; chain 2 PDPAR; Peptide with targeting and/or antimicrobial activity)
Organism, effect (morphology, biofilm and growth disruption) (microorganisms; S. pneumoniae): S. pneumoniae (A)
Target(s) (microorganism bound by the targeting peptide) (bacteria): Mycobacteria spp

PF-395 (YCVPLGNMGNMNNKIW; Peptide with targeting and/or antimicrobial activity)
Organism, effect (microorganisms; E. coli): E. coli (R)
Organism, effect (microorganisms; MRSA): MRSA (C)
Organism, effect (microorganisms; S. epidermidis): S. epidermidis (C)
Target(s) (microorganisms bound by the targeting peptide) (bacteria): S. epidermidis; also recorded: E. coli; also recorded: P. aeruginosa; also recorded: S. pneumoniae; also recorded: E. faecalis; also recorded: C. jeikeium; also recorded: C. jejuni

PF-433 (MRKEFHNVLSSGQLLADKRPARDYNRK; Peptide with targeting and/or antimicrobial activity)
Organism, effect (morphology, biofilm and growth disruption) (microorganisms; S. pneumoniae): S. pneumoniae (H)
Target(s) (microorganisms bound by the targeting peptide) (bacteria): S. epidermidis; also recorded: E. coli; also recorded: S. pneumoniae; also recorded: C. jeikeium

PF-656 (chain 1 RGMFVPFHDVDCVQ; chain 2 RGMFVPFHDVDCVQ; Peptide with targeting and/or antimicrobial activity)
Organism, effect (morphology, biofilm and growth disruption) (microorganisms; MRSA): MRSA (R)
Target(s) (microorganism bound by the targeting peptide) (bacteria): Mycobacteria spp

PF-C052 (SRFRNGV; Peptide with targeting and/or antimicrobial activity)
Organism, effect (morphology, biofilm and growth disruption) (microorganisms; P. gingivalis): P. gingivalis (H)
Target(s) (microorganism bound by the targeting peptide) (bacteria): A. naeslundii; also recorded: F. nucleatum; also recorded: S. mutans

PF-665 (chain 1 VLRVATAVGEVPTGL; chain 2 VLRVATAVGEVPTGL; Peptide with targeting and/or antimicrobial activity)
Organism, effect (morphology, biofilm and growth disruption) (microorganisms; S. pneumoniae): S. pneumoniae (H)
Target(s) (microorganism bound by the targeting peptide) (bacteria): Mycobacteria spp

PF-350 (LAVILRAIVY; Peptide with targeting and/or antimicrobial activity)
Organism, effect (microorganisms; E. coli): E. coli (C)
Organism, effect (microorganisms; MRSA): MRSA (C)
Organism, effect (microorganisms; S. epidermidis): S. epidermidis (C)
Target(s) (bacteria; [1]): S. epidermidis; also recorded: E. coli; also recorded: E. faecalis; also recorded: C. jeikeium; also recorded: C. jejuni

PF-149 (GKVSVLTRVPRSLGGAPANQ; Peptide with targeting and/or antimicrobial activity)
Organism, effect (microorganisms; MRSA): MRSA (H)
Target(s) (bacteria; [1]): S. epidermidis and M. luteus and E. coli and MRSA and C. jeikeium

LIQKGLNQTFIVVIRLNNFIKKS [PF-013]
Organism, effect (microorganisms; C. jeikeium): C. jeikeium (D)
Organism, effect (microorganisms; M. luteus): M. luteus (D)
Organism, effect (microorganisms; MRSA): MRSA (R)
Organism, effect (microorganisms; S. epidermidis): S. epidermidis (C)
Target(s) (bacteria; [2]): M. luteus and P. mirabilis and E. coli and P. aeruginosa and MRSA and S. pneumoniae and C. jeikeium and C. jejuni

PF-186 (DADKNLSLERDRFAWRVAAP; Peptide with targeting and/or antimicrobial activity)
Organism, effect (microorganisms; C. jeikeium): C. jeikeium (A)
Organism, effect (microorganisms; S. epidermidis): S. epidermidis (C)
Target(s) (bacteria; [1]): S. epidermidis and M. luteus and E. coli and P. aeruginosa and MRSA and C. jeikeium
